The structures appear in SMILES notation. Calls of active or inactive are those of the source. No rule for the calls is given here.

For the assay, the target named is Ubiquitin-conjugating enzyme E2 N (Homo sapiens) (UniProt P61088). Description: NMR detection of UBE2N ligand binding – biophysical, purified protein (AID 1552). The conditions noted are these: NMR binding to purified UBE2N.
Chain of Ubiquitin-conjugating enzyme E2 N (Homo sapiens) (P61088 whole entry, looked up): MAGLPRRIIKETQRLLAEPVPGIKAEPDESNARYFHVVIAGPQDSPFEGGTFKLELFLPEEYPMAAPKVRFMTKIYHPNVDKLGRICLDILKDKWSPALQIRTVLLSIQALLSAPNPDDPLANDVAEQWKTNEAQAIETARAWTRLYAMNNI
What is called Kd is a measure of binding affinity in units of concentration. Take `CCOC(=O)N1CCN(c2ncnc3c2cnn3C)CC1`: the Kd is > 4 mM (inactive).

Consider `N#Cc1sc2nc3c(c(-c4cccnc4)c2c1N)CCC3`, for which the Kd was > 4 mM (inactive).

Consider `Oc1ccc([C@H]2Oc3cc(O)cc(O)c3C[C@H]2O)cc1`, for which the Kd was > 4 mM (inactive).

For the molecule `CC(NC(=O)C1CCCCC1)C(=O)NC1=NCCS1` (configuration not stated), the Kd is > 4 mM (inactive).

Take `COc1ccccc1N1C(=N)SCC1=O`: the Kd was > 4 mM (inactive).

For `c1csc(-c2nnc3ccccn23)c1`, the Kd was > 4 mM (inactive).

For the molecule `Oc1ccc(-n2cncn2)cc1`, the Kd is > 4 mM (inactive).

For the molecule `CN(C)c1ccc(C2CC(=O)CC(=O)C2)cc1`, the Kd is > 4 mM (inactive).

Consider `O=C(O)/C=C/C=C/c1ccccc1`, for which the Kd is > 4 mM (inactive).

Consider `O=C1C2CC=C(Cl)CC2C(=O)N1c1ccccc1O` (configuration not stated), for which the Kd is > 4 mM (inactive).

`CC(=O)Oc1c2c(c(CC=C(C)C)c3c1C(=O)C1=C[C@@H]4CC5C(C)(C)OC(C/C=C(\C)C(=O)O)(C4=O)[C@@]15O3)OC(C)(CCC=C(C)C)C=C2` (some centres not stated): the Kd is > 4 mM (inactive).

Regarding `O=CN1CCN(C(=O)c2ccccc2Cl)CC1`, the Kd is > 4 mM (inactive).

On to `CNC(=O)c1c(O)c2ccccc2[nH]c1=O`, for which the Kd is > 4 mM (inactive).

With `O=C(O)CCC1=C2c3ccccc3CCN2C(=O)CC1`, the Kd is > 4 mM (inactive).

Regarding `Cc1noc(C)c1C(=O)NC1=NCCS1`, the Kd is > 4 mM (inactive).

For `O=C(c1ccccc1)c1ccc(N2CCNCC2)cc1`, the Kd is > 4 mM (inactive).

With `COc1c(O)cc2c(-c3ccccc3)cc(=O)oc2c1OC`, the Kd was > 4 mM (inactive).

With `CCOC(=O)c1ccc(F)cc1F`, the Kd was > 4 mM (inactive).

With `COC(=O)CC1NC2CCCCC2NC1=O` (configuration not stated), the Kd is > 4 mM (inactive).

In the case of `O=c1oc2c(O)c(O)cc3c(=O)oc4c(O)c(O)cc1c4c23`, the Kd is > 4 mM (inactive).

`CC(=O)c1c(O)n(C)c(=S)n(C)c1=O`: the Kd is > 4 mM (inactive).

For the molecule `O=S(=O)(c1cccc2cccnc12)N1CCOCC1`, the Kd is > 4 mM (inactive).

Turning to `CC1(C)C2C[C@@H](O)[C@]3(C)C(CC[C@@]4(C)[C@H](c5ccoc5)OC(=O)[C@H]5O[C@]543)[C@@]2(C)[C@@H](O)C[C@H]1O` (some centres not stated), the Kd is > 4 mM (inactive).

Consider `CC1=[N+]([O-])C2(N)CCc3c(no[n+]3[O-])C2(O)C1` (configuration not stated), for which the Kd was > 4 mM (inactive).

For `Cc1cccc(N2C(=O)CC(=O)NC2=O)c1`, the Kd is > 4 mM (inactive).

For the molecule `COc1ccc(-c2oc3cc(O[C@H]4O[C@H](CO)[C@@H](O)[C@H](O)[C@H]4O)c(OC)c(O)c3c(=O)c2OC)cc1O`, the Kd was > 4 mM (inactive).

Regarding `Cc1onc(-c2c(Cl)cccc2Cl)c1C(N)=O`, the Kd is > 4 mM (inactive).

As for `CC1CN(C(=O)c2ccncc2)CC(C)O1` (configuration not stated), the Kd was > 4 mM (inactive).

With `COc1cc2c(cc1OC)[C@@]13CCN4CC5=CCOC6CC(=O)N2C1[C@H]6[C@H]5C[C@H]43` (some centres not stated), the Kd is > 4 mM (inactive).

On to `CN1CCC(NC(=O)c2cnccn2)CC1`, for which the Kd was > 4 mM (inactive).

With `Cn1ncc(C(=O)NC2CCCCC2)c1Cl`, the Kd was > 4 mM (inactive).

Turning to `Cc1cc(C)n(-c2nc(N)cc(=O)[nH]2)n1`, the Kd is > 4 mM (inactive).

As to `O=C(Nc1nnc(-c2ccccc2Cl)o1)c1ccco1`, the Kd was > 4 mM (inactive).

For `NC12CC3CC(C1)CC(CC(=O)O)(C3)C2`, the Kd was > 4 mM (inactive).

For `Cc1ccc2[nH]c3nc(=S)[nH]nc3c2c1`, the Kd was > 4 mM (inactive).

In the case of `CC(=O)O[C@H]1C[C@@H](OC(C)=O)C(C)(C)C2C[C@@H](O)[C@]3(C)C(CC[C@@]4(C)[C@H](c5ccoc5)OC(=O)[C@H]5O[C@]543)[C@]21C` (some centres not stated), the Kd was > 4 mM (inactive).

Consider `OCc1ccncc1`, for which the Kd was > 4 mM (inactive).

As for `CN(C)C(=O)c1ccccc1-c1ccccc1`, the Kd was > 4 mM (inactive).

As to `O=C(O)Cc1nc(-c2ccncc2)n[nH]1`, the Kd was > 4 mM (inactive).

As for `COc1ccc2nc(NC(=O)c3cnccn3)sc2c1`, the Kd was > 4 mM (inactive).

For `Cn1c(=O)c2c([nH]c(=O)n2C)n(C)c1=O`, the Kd was > 4 mM (inactive).

As to `Cc1nnc(Nc2ccc(S(N)(=O)=O)cc2)[nH]c1=O`, the Kd is > 4 mM (inactive).

Take `O=C(CSc1ccnc(=O)[nH]1)NCc1ccccc1`: the Kd was > 4 mM (inactive).

`O=C1CSC(=Nc2ccc(F)cc2)N1`: the Kd was > 4 mM (inactive).

For `OCc1ccc2nonc2c1`, the Kd is > 4 mM (inactive).

With `Cc1nc2ccc(C(=O)N3CCSCC3)cc2s1`, the Kd was > 4 mM (inactive).

Turning to `O=C(Nc1ccccc1Cl)c1cnccn1`, the Kd is > 4 mM (inactive).

Turning to `O=C(O)c1cccc2c1OCCCO2`, the Kd was > 4 mM (inactive).

Take `COCC(=O)Nc1ccc(C)c(Cl)c1`: the Kd was > 4 mM (inactive).

`Cn1cccc1C(=O)NS(=O)(=O)c1ccccc1Cl`: the Kd was > 4 mM (inactive).

For `Cc1onc(-c2ccccc2)c1C(=O)Nc1ccncc1`, the Kd is > 4 mM (inactive).

For the molecule `Cc1cc(=O)[nH]c2ccccc12`, the Kd was > 4 mM (inactive).

Consider `Oc1cc(O)c2c(c1)O[C@H](c1ccc(O)c(O)c1)[C@H](O)C2`, for which the Kd is > 4 mM (inactive).

Regarding `COc1cc2c(c(OC)c1OC)-c1ccc(OC)c(=O)cc1[C@@H](NC(C)=O)CC2`, the Kd was > 4 mM (inactive).

Turning to `Cn1nc(C(=O)NCc2cccnc2)c2ccccc2c1=O`, the Kd is > 4 mM (inactive).

Turning to `NC(=O)c1ccc(N2C(=O)CCC2=O)cc1Cl`, the Kd was > 4 mM (inactive).

Turning to `COc1ccc(-c2coc3cc(O)ccc3c2=O)cc1`, the Kd was > 4 mM (inactive).

Take `CC(=O)O[C@@H]1CC2C(C)(C)[C@H](O)C=C[C@]2(C)C2CC[C@@]3(C)[C@H](c4ccoc4)OC(=O)C4OC43[C@@]21C` (some centres not stated): the Kd is > 4 mM (inactive).

`COCc1cc(=O)oc2cc(N)ccc12`: the Kd is > 4 mM (inactive).

With `COc1ccc(Cl)cc1-c1n[nH]c(=S)n1C`, the Kd was > 4 mM (inactive).

For the molecule `NC(=O)CC1Sc2ccccc2NC1=O` (configuration not stated), the Kd is > 4 mM (inactive).

In the case of `CCN1CCc2c(sc(N)c2C(N)=O)C1`, the Kd was > 4 mM (inactive).

With `O=P(O)(Cc1ccccc1)c1ccccc1`, the Kd is > 4 mM (inactive).

As to `CCOC(=O)c1cnn2ccccc12`, the Kd is > 4 mM (inactive).

Take `Cc1cc(NC(=O)c2ccc3c(c2)OCO3)no1`: the Kd was > 4 mM (inactive).

On to `O=C(O)c1csc(-c2cccnc2)n1`, for which the Kd is > 4 mM (inactive).

On to `CNC(=O)CC1Sc2ccccc2NC1=O` (configuration not stated), for which the Kd was > 4 mM (inactive).

Consider `O=C(c1ccc(F)cc1)N1CCN(c2ncccn2)CC1`, for which the Kd is > 4 mM (inactive).

Turning to `CC1(C)N([O-])c2cc([N+](=O)[O-])ccc2[N+]1=O`, the Kd is > 4 mM (inactive).

For the molecule `CC(=O)Nc1ccc(C)cc1NC(C)=O`, the Kd was > 4 mM (inactive).

For the molecule `Nc1nc(=S)n2c(n1)oc1ccccc12`, the Kd was > 4 mM (inactive).

For the molecule `c1csc(-c2nn[nH]n2)c1`, the Kd was > 4 mM (inactive).

The record behind these values is PubChem BioAssay AID1552 (Sanford-Burnham Center for Chemical Genomics, 2009).
